In publication PMC11249646, “Small-Molecule Disruptors of the Interaction between Calcium- and Integrin-Binding Protein 1 and Integrin αIIbβ3 as Novel Antiplatelet Agents” (ACS Pharmacology & Translational Science, 2024):
Read-outs that look alike come from different tables or passages of the source.

Target: T1, CIB1 and αIIb interaction (CIB1-GST : F-αIIb peptide) (Homo sapiens, UniProt Q99828)
T1 construct: made in house; host or cells: BL-21 plus RIL cells (E. coli)
T1 sequence (Q99828 1-191): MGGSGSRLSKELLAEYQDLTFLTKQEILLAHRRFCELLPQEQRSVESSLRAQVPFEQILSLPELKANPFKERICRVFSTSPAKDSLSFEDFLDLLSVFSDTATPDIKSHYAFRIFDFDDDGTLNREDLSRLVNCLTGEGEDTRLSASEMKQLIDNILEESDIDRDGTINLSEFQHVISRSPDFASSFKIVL
Experiment: FP assay, 1536-well qHTS format (primary and confirmatory screen)
Type: binding
Conditions: for Curve Class: negative sign = inhibitory curve

[1] = qHTS primary screen hits, Table S2, negative = inhibition
[2] = qHTS primary screen hits, Table S2
[3] = qHTS primary screen hits, Table S2, read-out: IC50
[4] = qHTS primary screen hits, Table S2, several classes where COUNT > 1
[5] = qHTS primary screen of LOPAC/NPACT libraries, negative = inhibition
[6] = qHTS primary screen of LOPAC/NPACT libraries
[7] = qHTS primary screen of LOPAC/NPACT libraries, read-out: IC50

## Cc1ccc(C)c(SC2=NS(=O)(=O)c3cc(C(=O)Nc4ccc5ncccc5c4)ccc32)c1 [NCGC00238689-01]
[1]
  Efficacy (%): -27%
[2]
  Curve Class: -2.4
[3]
  IC50: 44.7 µM

## O=C(Nc1ccccc1)c1ccccc1NC(=O)C1CCCCC1 [NCGC00189487-01]
[1]
  Efficacy (%): -27%
[4]
  Curve Class: -2.4
[3]
  IC50: 56.2 µM

## O=C1OCc2cc3cccc(O[C@@H]4O[C@H](CO)[C@@H](O)[C@H](O)[C@H]4O)c3c(O)c21 [NCGC00169010-02]
[5]
  Efficacy (%): -30%
[6]
  Curve Class: -2.4
[7]
  IC50: 22.4 µM

## CC(C)NCC(O)c1cc(O)cc(O)c1.CC(C)NCC(O)c1cc(O)cc(O)c1.O=S(=O)(O)O (stereo not shown) [NCGC00015655-09]
[1]
  Efficacy (%): -51%
[4]
  Curve Class: -2.4
[3]
  IC50: 56.2 µM

## CN(C)c1ccc(-c2ccnc(O)c2N)cc1 [NCGC00181386-01]
[1]
  Efficacy (%): -24%
[4]
  Curve Class: -2.4
[3]
  IC50: 79.4 µM

## C=CCn1c(=O)c2c(nc(-c3ccc(S(=O)(=O)O)cc3)n2C)n(C)c1=O [NCGC00015008-05]
[5]
  Efficacy (%): -20%
[6]
  Curve Class: -2.2
[7]
  IC50: 25.1 µM

## CC(=O)NC(c1ccco1)c1cc(Cl)c2ccc(N(C)C)nc2c1O (stereo not shown) [NCGC00183714-01]
[1]
  Efficacy (%): -39%
[4]
  Curve Class: -2.2
[3]
  IC50: 50.1 µM

## O=C(O)C(F)(F)F.O=C1CCCC2=C1C1(CCCCC1)N=C(Nc1nc3ccccc3o1)N2 [NCGC00186052-01]
[1]
  Efficacy (%): -23%
[4]
  Curve Class: -2.4
[3]
  IC50: 56.2 µM

## O=C(O)C(F)(F)F.OC(CN1CCCCC1)Cn1c2ccc(Cl)cc2c2cc(Cl)ccc21 (stereo not shown) [NCGC00356030-01]
[1]
  Efficacy (%): -35%
[2]
  Curve Class: -3
[3]
  IC50: 79.4 µM

## CN(C)c1cccc(-c2cnc(N3CCC(c4ncc[nH]4)CC3)s2)c1.O=C(O)C(F)(F)F [NCGC00187899-01]
[1]
  Efficacy (%): -34%
[2]
  Curve Class: -2.4
[3]
  IC50: 79.4 µM

## COc1cc2c(cc1OC)-c1[nH]nc(Nc3cccc(F)c3)c1C2 [NCGC00343986-02]
[5]
  Efficacy (%): -25%
[6]
  Curve Class: -2.4
[7]
  IC50: 63.1 µM

## Oc1cccc2cccnc12 [NCGC00090708-05]
  Efficacy (%): -29%
IC50 [μM]
  IC50: 117 µM

## O=C1NC(=O)/C(=C/c2ccc3c(c2)OC(F)(F)O3)S1 [NCGC00261190-01]
[1]
  Efficacy (%): -33%
[2]
  Curve Class: -1.2
[3]
  IC50: 17.8 µM

## Cc1ccnc(NC(=S)N2CCc3ccccc3C2)c1.O=C(O)C(F)(F)F [NCGC00241083-01]
[1]
  Efficacy (%): -23%
[4]
  Curve Class: -2.4
[3]
  IC50: 79.4 µM

## CCOc1ccc(Cc2nc(-c3c(C)nc4ccccn34)cs2)cc1 [NCGC00485083-01]
[5]
  Efficacy (%): -29%
[6]
  Curve Class: -2.4
[7]
  IC50: 44.7 µM

## C=Cc1c(C)c2cc3[nH]c(cc4nc(cc5nc(cc1[nH]2)C(C)=C5CCC(=O)O)C(CCC(=O)O)=C4C)c(C)c3C=C [NCGC00015844-10]
qHTS FP screen hits, Table S2, negative = inhibition
  Efficacy (%): -75%
qHTS FP screen hits, Table S2, one class per curve where COUNT > 1
  Curve Class: -2.2
qHTS FP screen hits, Table S2, read-out: IC50
  IC50: 42.2 µM

## CC(NC(=O)CC(=O)O)c1nc2ccccc2c(=O)[nH]1 (stereo not shown) [NCGC00385407-01]
[5]
  Efficacy (%): -145%
[6]
  Curve Class: -2.1
[7]
  IC50: 28.2 µM

## NC1(C(=O)O)CCc2cc(C(=O)O)ccc21 (stereo not shown) [NCGC00015024-06]
[5]
  Efficacy (%): -25%
[6]
  Curve Class: -2.2
[7]
  IC50: 56.2 µM

## CCOC(=O)OC(C)OC(=O)c1csc(-n2nc(-c3ccc(F)c(F)c3)cc2O)n1.O=C(O)C(F)(F)F (stereo not shown) [NCGC00356024-01]
[1]
  Efficacy (%): -35%
[4]
  Curve Class: -2.4
[3]
  IC50: 79.4 µM

## CC(=O)NCc1ccc(-c2csc(Nc3cc(C)cc(C)c3)n2)o1.O=C(O)C(F)(F)F [NCGC00314997-03]
[1]
  Efficacy (%): -84%
[4]
  Curve Class: -2.4
[3]
  IC50: 50.1 µM

## CO/N=C(/C(=O)N[C@@H]1C(=O)N2C(C(=O)[O-])=C(C[n+]3ccn4ncccc43)CS[C@H]12)c1nsc(N)n1 [NCGC00181750-01]
[1]
  Efficacy (%): -60%
[4]
  Curve Class: -2.4
[3]
  IC50: 56.2 µM

## COc1ccc(/C=C/C(=O)Nc2ccccc2C(=O)O)cc1OC [NCGC00018185-09]
[1]
  Efficacy (%): -29%
[4]
  Curve Class: -2.2
[3]
  IC50: 39.8 µM

## O=C(Nc1nc(-c2ccccc2)cs1)c1ccncc1NS(=O)(=O)c1ccc(Cl)cc1.O=C(O)C(F)(F)F [NCGC00344892-01]
[1]
  Efficacy (%): -48%
[3]
  IC50: 53.2 µM

## Cc1ccc(N[S+](=O)([O-])c2cc3c(cc2N[C@@H](C)CO)NC(=O)CC3)cc1N[C@@H](C)CO [NCGC00189369-01]
[1]
  Efficacy (%): -29%
[4]
  Curve Class: -2.4
[3]
  IC50: 70.8 µM

## COc1ccc(C2CC(=O)Nc3nc(N4CCOCC4)sc32)c(OC)c1.O=C(O)C(F)(F)F (stereo not shown) [NCGC00488259-02]
[1]
  Efficacy (%): -59%
[4]
  Curve Class: -2.4
[3]
  IC50: 56.2 µM

## COc1cc(NS(=O)(=O)c2cccc([N+](=O)[O-])c2)c2ncccc2c1 [NCGC00161706-01]
[1]
  Efficacy (%): -35%
[4]
  Curve Class: -2.4
[3]
  IC50: 56.2 µM

## O=C(O)C(F)(F)F.OCc1cn(Cc2ccc(O)c3ncccc23)cn1 [NCGC00183377-01]
[1]
  Efficacy (%): -33%
[4]
  Curve Class: -2.2
[3]
  IC50: 44.7 µM

## CN(C)c1ccc(C(=C2C=CC(=[N+](C)C)C=C2)c2ccccc2)cc1.CN(C)c1ccc(C(=C2C=CC(=[N+](C)C)C=C2)c2ccccc2)cc1.O=C(O)C(=O)O.O=C([O-])C(=O)O.O=C([O-])C(=O)O [NCGC00013058-02]
[1]
  Efficacy (%): -53%
[4]
  Curve Class: -3
[3]
  IC50: 100 µM

## C#CCOC(=O)NCCCC[C@H](N)C(=O)O [NCGC00351539-01]
[1]
  Efficacy (%): -24%
[4]
  Curve Class: -2.4
[3]
  IC50: 56.2 µM

## O=Cc1ccc(O)c(O)c1O [NCGC00262933-01]
[1]
  Efficacy (%): -62%
[4]
  Curve Class: -2.4
[3]
  IC50: 56.2 µM

## CN1CCN(c2ccc(Nc3c4ccccc4nc4ccccc34)cc2)CC1.O=C(O)C(F)(F)F [NCGC00167823-03]
[1]
  Efficacy (%): -25%
[4]
  Curve Class: -2.4
[3]
  IC50: 56.2 µM

## c1ccc(C2Nc3cccc4cccc(c34)N2)cc1 [NCGC00182927-03]
  Efficacy (%): -29%
[2]
  Curve Class: -2.4
[3]
  IC50: 50.1 µM

## CC[n+]1c(-c2ccccc2)c2cc(N)ccc2c2ccc(N)cc21.[Br-] [NCGC00091387-08]
[1]
  Efficacy (%): -61%
[4]
  Curve Class: -2.4
[3]
  IC50: 56.2 µM

## COc1cc(NS(C)(=O)=O)ccc1Nc1c2ccccc2nc2ccccc12.Cl [NCGC00015113-03]
[5]
  Efficacy (%): -25%
[6]
  Curve Class: -2.2
[7]
  IC50: 56.2 µM

## COc1cc2c(cc1OC)CN(CCc1ccc(NC(=O)c3cc(OC)c(OC)cc3NC(=O)c3cnc4ccccc4c3)cc1)CC2 [NCGC00346448-01]
[1]
  Efficacy (%): -30%
[4]
  Curve Class: -2.4
[3]
  IC50: 42.9 µM

## O=C(O)C(F)(F)F.c1nc(NCCc2c[nH]cn2)c2ccc(-c3ccc4c(c3)OCO4)cc2n1 [NCGC00185971-01]
[1]
  Efficacy (%): -28%
[4]
  Curve Class: -2.4
[3]
  IC50: 79.4 µM

## O=C(Nc1nc(-c2ccccc2)cs1)c1ccncc1NS(=O)(=O)c1ccccc1.O=C(O)C(F)(F)F [NCGC00344903-01]
[1]
  Efficacy (%): -44%
[4]
  Curve Class: -2.2
[3]
  IC50: 44.7 µM

## CNS(=O)(=O)c1ccc(Cc2c(-c3cccc(-c4ccccc4)c3)nn(-c3nc(C(=O)O)cs3)c2O)cc1.O=C(O)C(F)(F)F [NCGC00356637-01]
[1]
  Efficacy (%): -55%
[4]
  Curve Class: -3
[3]
  IC50: 79.4 µM

## O=C(O)c1ccccn1 [NCGC00165993-02]
[1]
  Efficacy (%): -21%
[2]
  Curve Class: -2.4
[3]
  IC50: 44.7 µM

## COc1ccc(-c2csc(NC(=O)c3ccncc3NS(=O)(=O)c3ccc(C)cc3)n2)cc1.O=C(O)C(F)(F)F [NCGC00319009-01]
[1]
  Efficacy (%): -53%
[4]
  Curve Class: -2.4
[3]
  IC50: 56.2 µM
